From patent publication US20240358693A1, “METHODS OF TREATING PAIN” (Aisa Pharma, Inc., priority 2023, published 2024)

Test system: participants with SSc-RP
Test: Scleroderma Health Assessment Questionnaire (SHAQ): disability indices and visual analog scales
Type: in vivo, human
Conditions: Part A, sensitivity analysis
Description: The standard, validated, patient reported outcome measures tool for SSc patients, the Scleroderma Health Assessment Questionnaire (SHAQ), will be used to assess the participant qualify of life. Details are attached in the Appendix. The participant quality of life will be scored, and a disability index calculated for each questionnaire completed by the patient at Screening and each in-clinic visit. The absolute change in participant quality of life from baseline to the end of each dosing period will be calculated similar to frequency data as before.
The SHAQ includes a Raynaud's VAS, which will be reported at screening and each in-clinic visit. The absolute change in Raynaud-VAS, assessed by the participants response to the SHAQ question ‘In the past 7 days, how much have your Raynaud's interfered with your daily activities?’ at baseline and the end of each dosing period will be calculated similar to frequency data as before.
The SHAQ is used to calculate a Disability Index to assess the participant qualify of life. The eight categories assessed by the Disability Index are 1) dressing and grooming, 2) arising, 3) eating, 4) walking, 5) hygiene, 6) reach, 7) grip, and 8) common daily activities. For each of these categories, patients report the amount of difficulty they have in performing two or three specific activities.
There are four possible responses for the Disability Index questions: • Without any difficulty=0 • With some difficulty=1 • With much difficulty=2 • Unable to do=3. • The highest score reported by the patient for any component question of the eight categories determines the score for that category. • If a component question is left blank or the response is too ambiguous to assign a score, then the score for that category is determined by the remaining completed question(s). • If all component questions are blank or if more than one answer is given, then follow up with the respondent is required. • If the respondent's mark is between the response columns, then move it to the closest one. If it's directly between the two, move it to the higher one.
Each of the disability items on the SHAQ has a companion aids/devices variable that is used to record what type(s) of assistance, if any, the participant uses for his/her usual activities. These variables (see below) are coded as follows: • 0=No assistance is needed. • 1=A special device is used by the patient in his/her usual activities. • 2=The patient usually needs help from another person. • 3=The patient usually needs BOTH a special device AND help from another person.
The scoring variables and scoring rules permit the computation of two disability indices, the Standard Disability Index and the Alternative Disability Index.
This question results in a new set of category scores that are computed by adjusting the score for each category, if necessary, based on the patient's use of an aid or device or assistance for that category. If either devices and/or help from another person are checked for a category, the score is set to “2”, unless the score is already “3” (i.e., scores of “0” or “1” are increased to “2”). For example, if the highest score for the dressing category is “1”, and the patient says they use a device for dressing, the computed category score would be “2”. The sum of the computed categories scores is then calculated and divided by the number of categories answered. This gives a score in the 0 to 3 range.
The aid and device variables are not used to calculate the alternative disability index; it is calculated by adding the scores for each of the categories and dividing by the number of categories answered. This gives a score in the 0 to 3 range.
The standard, validated, patient reported outcome measures tool for SSc patients, the SHAQ, was collected at the time points specified in the study schedules (FIG. 2 and FIGS. 4A and 4B) to assess the participant's quality of life. The SHAQ included a Raynaud's VAS that will also be reported separately.

[1] = PP Population, pooled cilnidipine 10 mg and 20 mg arms (plus tadalafil 5 mg where labelled)
[2] = Pooled Cilnidipine 10 mg and Cilnidipine 10 mg + Tadalafil 5 mg (N = 9), Modified ITT

COCCOC(=O)C1=C(C)NC(C)=C(C(=O)OC/C=C/c2ccccc2)C1c1cccc([N+](=O)[O-])c1 (centres unmarked) [Cilnidipine, cilnidipine]
SHAQ Alternative Disability Index: Baseline, Mean [1]: 0.359
SHAQ Alternative Disability Index: Baseline, Median [1]: 0.250
SHAQ Alternative Disability Index: Change from Baseline (Day 12), Mean [1]: 0.031
SHAQ Alternative Disability Index: Change from Baseline (Day 12), Median [1]: 0.000
SHAQ Alternative Disability Index: In-Clinic Visit (Day 12), Mean [1]: 0.391
SHAQ Alternative Disability Index: In-Clinic Visit (Day 12), Median [1]: 0.188
SHAQ Alternative Disability Index: Percent Change from Baseline (Day 12), Mean [1]: 9.68%
SHAQ Alternative Disability Index: Percent Change from Baseline (Day 12), Median [1]: −11.11%
SHAQ Standard Disability Index: Baseline, Mean [2]: 0.597
SHAQ Standard Disability Index: Baseline, Median [2]: 0.500
SHAQ Standard Disability Index: Change from Baseline, Mean [2]: −0.021
SHAQ Standard Disability Index: Change from Baseline, Median [2]: 0.000
SHAQ Standard Disability Index: Day 12, Mean [2]: 0.576
SHAQ Standard Disability Index: Day 12, Median [2]: 0.375
SHAQ Standard Disability Index: Percent Change from Baseline, Mean [2]: 7.50%
SHAQ Standard Disability Index: Percent Change from Baseline, Median [2]: 0.00%
SHAQ VAS Breathing Problems: Baseline, Mean [2]: 1.511
SHAQ VAS Breathing Problems: Baseline, Median [2]: 0.800
SHAQ VAS Breathing Problems: Change from Baseline, Mean [2]: −0.175
SHAQ VAS Breathing Problems: Change from Baseline, Median [2]: 0.000
SHAQ VAS Breathing Problems: Day 12, Mean [2]: 1.375
SHAQ VAS Breathing Problems: Day 12, Median [2]: 0.000
SHAQ VAS Breathing Problems: Percent Change from Baseline, Mean [2]: −26.05%
SHAQ VAS Breathing Problems: Percent Change from Baseline, Median [2]: −21.33%
SHAQ VAS Finger Ulcers: Baseline, Mean [2]: 0.656
SHAQ VAS Finger Ulcers: Baseline, Median [2]: 0.200
SHAQ VAS Finger Ulcers: Change from Baseline, Mean [2]: −0.267
SHAQ VAS Finger Ulcers: Change from Baseline, Median [2]: −0.100
SHAQ VAS Finger Ulcers: Day 12, Mean [2]: 0.389
SHAQ VAS Finger Ulcers: Day 12, Median [2]: 0.000
SHAQ VAS Finger Ulcers: Percent Change from Baseline, Mean [2]: −46.06%
SHAQ VAS Finger Ulcers: Percent Change from Baseline, Median [2]: −31.94%
SHAQ VAS Intestinal Problems: Baseline, Mean [2]: 2.444
SHAQ VAS Intestinal Problems: Baseline, Median [2]: 1.100
SHAQ VAS Intestinal Problems: Change from Baseline, Mean [2]: −1.228
SHAQ VAS Intestinal Problems: Change from Baseline, Median [2]: −0.250
SHAQ VAS Intestinal Problems: Day 12, Mean [2]: 1.217
SHAQ VAS Intestinal Problems: Day 12, Median [2]: 0.700
SHAQ VAS Intestinal Problems: Percent Change from Baseline, Mean [2]: −27.93%
SHAQ VAS Intestinal Problems: Percent Change from Baseline, Median [2]: −54.13%
SHAQ VAS Overall Disease Severity: Baseline, Mean [2]: 3.044
SHAQ VAS Overall Disease Severity: Baseline, Median [2]: 1.900
SHAQ VAS Overall Disease Severity: Change from Baseline, Mean [2]: −0.606
SHAQ VAS Overall Disease Severity: Change from Baseline, Median [2]: −0.700
SHAQ VAS Overall Disease Severity: Day 12, Mean [2]: 2.439
SHAQ VAS Overall Disease Severity: Day 12, Median [2]: 1.900
SHAQ VAS Overall Disease Severity: Percent Change from Baseline, Mean [2]: −24.68%
SHAQ VAS Overall Disease Severity: Percent Change from Baseline, Median [2]: −30.93%
SHAQ VAS Pain: Baseline, Mean [2]: 3.278
SHAQ VAS Pain: Baseline, Median [2]: 3.100
SHAQ VAS Pain: Change from Baseline, Mean [2]: −0.633
SHAQ VAS Pain: Change from Baseline, Median [2]: −0.700
SHAQ VAS Pain: Day 12, Mean [2]: 2.644
SHAQ VAS Pain: Day 12, Median [2]: 2.900
SHAQ VAS Pain: Percent Change from Baseline, Mean [2]: −20.07%
SHAQ VAS Pain: Percent Change from Baseline, Median [2]: −21.87%
SHAQ VAS Raynaud's: Baseline, Mean [2]: 2.733
SHAQ VAS Raynaud's: Baseline, Median [2]: 1.400
SHAQ VAS Raynaud's: Change from Baseline, Mean [2]: −0.414
SHAQ VAS Raynaud's: Change from Baseline, Median [2]: −0.100
SHAQ VAS Raynaud's: Day 12, Mean [2]: 2.319
SHAQ VAS Raynaud's: Day 12, Median [2]: 2.600
